In ChEMBL document CHEMBL3045300, “Synthesis of photolabile lac-acetogenin for photoaffinity labeling of mitochondrial complex I” (J Pestic Sci, 2006):
pIC50: −log10 of the molar value.

How the values were obtained:
Bos taurus = species on record: Bos taurus; test: Inhibition of Bos taurus (bovine) heart submitochondrial NADH complex 1 at 12 nM by NADH oxidase assay
[1] = Inhibition of Bos taurus (bovine) heart submitochondrial NADH complex 1 by NADH oxidase assay

Compound	inhibition (Bos taurus) [%]	pIC50 [1]
O=C1N[C@H]2[C@H](CS[C@H]2CCCCC(=O)OCCCCCCC[C@@H](O)[C@H]2CC[C@H]([C@H]3CC[C@H]([C@H](O)CCCCCCOc4ccc(C5(C(F)(F)F)N=N5)cc4)O3)O2)N1	> 95	8.41
CCCCCCCCCC[C@@H](O)[C@H]1CC[C@H]([C@H]2CC[C@H]([C@H](O)CCCCCCCCCC)O2)O1 [dleta-lac-Acetogenin]		8.74
